{
  "source": "patent EP0429304A2",
  "about": "“Pyridone-carboxylic acid derivatives and their use as veterinary medicines” (SHIONOGI SEIYAKU KABUSHIKI KAISHA trading under the name of …, priority 1989, dated 1991)",
  "key": {"[1]": {"test_system": "H.pp (otherwise called Actinobacillus pleuropneumoniae) strain M-1", "assay": "Experimental H.pp infection to pig, through injection", "format": "in vivo", "conditions": "injection to thigh muscle one time, Dose 5 mg/kg; dissection 6 days after inoculation", "method": "In these experiments, the compound (I) was applied to the designated animals by (1) oral administration, (2) incorporation into baits and (3) intramuscular injection, the details of which are explained below.\n(3) Preparation of the MG infected fowls was performed in the same manner as in (1) above. Infection of H.pp (otherwise called Actinobacillus pleuropneumoniae) to cause pleuropneumonia in pig was performed by inoculating 5 ml of a fresh cultured strain (i.e. M-1) of H.pp to each nasopharyngeal of some 45 days pigs, each weighing 4 to 9 kg (4 to 5 pigs/group), followed by injection of the test compounds to each thigh muscle at a designated volume one time. Pigs were dissected 6 days after the inoculation. The evaluation of the antimicrobial activity was made by observation of the pneumonia symptomes in air sacs, number of dead body and degree of nodosity in air sacks on dissection."}, "[2]": {"test_system": "Pasteurella piscicida (P.pis) No. 2", "assay": "In vitro sensitivity test", "format": "cell-based", "conditions": "25°C, 40 to 48 hours", "method_in_brief": "(§1)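 Read-out is visual growth after incubation. Conditions were 37°C for 7 days in Frey medium (12 % pig-serum, 0.01 % βNAD; liquid dilution) for MS, and 37°C for 20 to 24 hours on Mueller Hinton agar for S.au. P.pis used 25°C, 40 to 48 hours, on 1.5 % NaCl heart infusion agar.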"}, "[3]": {"test_system": "Streptococcus sp (Str.sp) SNO6119", "assay": "In vitro sensitivity test", "format": "cell-based", "conditions": "25°C, 40 to 48 hours"}, "[4]": {"test_system": "Mycoplasma gallisepticum (MG) S6", "assay": "In vitro sensitivity test (liquid dilution method)", "format": "cell-based", "conditions": "37°C, 7 days"}, "[5]": {"test_system": "Mycoplasma gallisepticum (MG) T-7-T, TS-resistant strain isolated from the field", "assay": "In vitro sensitivity test (liquid dilution method)", "format": "cell-based", "conditions": "37°C, 7 days"}, "[6]": {"test_system": "Mycoplasma hyopneumoniae (Mh) ST-11", "assay": "In vitro sensitivity test (liquid dilution method)", "format": "cell-based", "conditions": "37°C, 7 days"}, "[7]": {"test_system": "Mycoplasma synoviae (MS) F10-2as", "assay": "In vitro sensitivity test (liquid dilution method)", "format": "cell-based", "conditions": "37°C, 7 days", "method_in_brief": "as §1"}, "[8]": {"test_system": "Mycoplasma synoviae (MS) 1853", "assay": "In vitro sensitivity test (liquid dilution method)", "format": "cell-based", "conditions": "37°C, 7 days", "method_in_brief": "as §1"}, "[9]": {"test_system": "TS-resistant strain of MG", "format": "in vivo, chicken", "conditions": "9-days chicken; for Infectious index Left air sack + / Infectious index Left air sack ++ / Infectious index Left air sack +++ / Infectious index Left air sack - / Infectious index Right air sack + / Infectious index Right air sack ++ / Infectious index Right air sack +++ / Infectious index Right air sack -: count of fowl; for Infectious index Left air sack + / Infectious index Left air sack ++ / Infectious index Left air sack +++ / Infectious index Left air sack - / Infectious index Right air sack + / Infectious index Right air sack ++ / Infectious index Right air sack +++ / Infectious index Right air sack - / Number of fowl having air sack lesions: 1.7 x 10³ CFU/fowl; for Number of infected fowl/Number of fowl tested: 3.5 x 10³ CFU/fowl"}, "[10]": {"test_system": "Escherichia coli (E.coli) E-17, chicken-origin strain isolated from the field", "assay": "In vitro sensitivity test (agar dilution method)", "format": "cell-based", "conditions": "37°C, 20 to 24 hours", "method_in_brief": "(§2)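 Bacteria were of animal origin. MS strains were grown by liquid dilution in Frey medium with 12 % pig-serum and 0.01 % βNAD at 37°C for 7 days. S.au was tested by agar dilution on Mueller Hinton agar, 37°C for 20 to 24 hours. P.pis was grown on 1.5 % NaCl heart infusion agar at 25°C for 40 to 48 hours.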"}, "[11]": {"test_system": "Hemophilus pleuropneumonia (H.pp) M-1", "assay": "In vitro sensitivity test (agar dilution method)", "format": "cell-based", "conditions": "37°C, 20 hours, 10 % CO₂"}, "[12]": {"test_system": "Bordetella bronchiseptica (B.br) ABU-1", "assay": "In vitro sensitivity test (agar dilution method)", "format": "cell-based", "conditions": "37°C, 20 to 24 hours"}, "[13]": {"test_system": "Hemophilus paragallinarum (H.pg) 221", "assay": "In vitro sensitivity test (agar dilution method)", "format": "cell-based", "conditions": "agar dilution, 37°C, 20 hours, 10 % CO₂"}, "[14]": {"test_system": "Hemophilus paragallinarum (H.pg) S-1", "assay": "In vitro sensitivity test (agar dilution method)", "format": "cell-based", "conditions": "agar dilution, 37°C, 20 hours, 10 % CO₂"}, "[15]": {"test_system": "Escherichia coli (E.coli) JC-2", "assay": "In vitro sensitivity test (agar dilution method)", "format": "cell-based", "conditions": "37°C, 20 to 24 hours"}, "[16]": {"test_system": "Staphylococcus aureus (S.au) 209P", "assay": "In vitro sensitivity test (agar dilution method)", "format": "cell-based", "conditions": "37°C, 20 to 24 hours", "method_in_brief": "as §2"}, "[17]": {"test_system": "Salmonella typhimurium (S.typhi) 13311", "assay": "In vitro sensitivity test (agar dilution method)", "format": "cell-based", "conditions": "37°C, 20 to 24 hours"}},
  "note": "Where two headings read alike, the source gives them in different places.",
  "data": [
    {"smiles": "Cl.Nc1c(F)c(N2C[C@@H]3CC[C@@H](N)[C@@H]3C2)c(F)c2c1c(=O)c(C(=O)O)cn2C1CC1", "note": "(relative stereo) [I-16]", "values": [
      {"measurement": "Number of pig having nodi/Number of pig tested", "setting": "[1]", "value": "0/4"},
      {"measurement": "In vitro Sensitivity Test P.pis No. 2", "setting": "[2]", "value": 0.39, "unit": "µg/mL"},
      {"measurement": "In vitro Sensitivity Test Str.sp SNO6119", "setting": "[3]", "value": 0.39, "unit": "µg/mL"},
      {"measurement": "In vitro Sensitivity Test MG S6", "setting": "[4]", "value": "<0.0313", "unit": "µg/mL"},
      {"measurement": "In vitro Sensitivity Test MG T-7-T", "setting": "[5]", "value": 0.00313, "unit": "µg/mL"},
      {"measurement": "In vitro Sensitivity Test Mh ST-11", "setting": "[6]", "value": "<0.025", "unit": "µg/mL"},
      {"measurement": "In vitro Sensitivity Test MS F10-2as", "setting": "[7]", "value": 0.2, "unit": "µg/ml"},
      {"measurement": "In vitro Sensitivity Test MS 1853", "setting": "[8]", "value": 0.39, "unit": "µg/mL"},
      {"measurement": "Infectious index Left air sack +", "setting": "[9]; oral 6.25 mg/kg", "value": 0},
      {"measurement": "Infectious index Left air sack ++", "setting": "[9]; oral 6.25 mg/kg", "value": 0},
      {"measurement": "Infectious index Left air sack +++", "setting": "[9]; oral 6.25 mg/kg", "value": 0},
      {"measurement": "Infectious index Left air sack -", "setting": "[9]; oral 6.25 mg/kg", "value": 4},
      {"measurement": "Infectious index Right air sack +", "setting": "[9]; oral 6.25 mg/kg", "value": 0},
      {"measurement": "Infectious index Right air sack ++", "setting": "[9]; oral 6.25 mg/kg", "value": 3},
      {"measurement": "Infectious index Right air sack +++", "setting": "[9]; oral 6.25 mg/kg", "value": 0},
      {"measurement": "Infectious index Right air sack -", "setting": "[9]; oral 6.25 mg/kg", "value": 1},
      {"measurement": "Infectious index Left air sack +", "setting": "[9]; oral 12.5 mg/kg", "value": 0},
      {"measurement": "Infectious index Left air sack ++", "setting": "[9]; oral 12.5 mg/kg", "value": 0},
      {"measurement": "Infectious index Left air sack +++", "setting": "[9]; oral 12.5 mg/kg", "value": 0},
      {"measurement": "Infectious index Left air sack -", "setting": "[9]; oral 12.5 mg/kg", "value": 5},
      {"measurement": "Infectious index Right air sack +", "setting": "[9]; oral 12.5 mg/kg", "value": 0},
      {"measurement": "Infectious index Right air sack ++", "setting": "[9]; oral 12.5 mg/kg", "value": 0},
      {"measurement": "Infectious index Right air sack +++", "setting": "[9]; oral 12.5 mg/kg", "value": 0},
      {"measurement": "Infectious index Right air sack -", "setting": "[9]; oral 12.5 mg/kg", "value": 5},
      {"measurement": "Infectious index Left air sack +", "setting": "[9]; oral 25.0 mg/kg", "value": 0},
      {"measurement": "Infectious index Left air sack ++", "setting": "[9]; oral 25.0 mg/kg", "value": 0},
      {"measurement": "Infectious index Left air sack +++", "setting": "[9]; oral 25.0 mg/kg", "value": 0},
      {"measurement": "Infectious index Left air sack -", "setting": "[9]; oral 25.0 mg/kg", "value": 5},
      {"measurement": "Infectious index Right air sack +", "setting": "[9]; oral 25.0 mg/kg", "value": 0},
      {"measurement": "Infectious index Right air sack ++", "setting": "[9]; oral 25.0 mg/kg", "value": 0},
      {"measurement": "Infectious index Right air sack +++", "setting": "[9]; oral 25.0 mg/kg", "value": 0},
      {"measurement": "Infectious index Right air sack -", "setting": "[9]; oral 25.0 mg/kg", "value": 5},
      {"measurement": "Number of infected fowl/Number of fowl tested", "setting": "[9]; oral 1.56 mg/kg", "value": "5/5"},
      {"measurement": "Number of infected fowl/Number of fowl tested", "setting": "[9]; oral 3.13 mg/kg", "value": "2/5"},
      {"measurement": "Number of fowl having air sack lesions", "setting": "[9]; oral 6.25 mg/kg", "value": 3},
      {"measurement": "Number of infected fowl/Number of fowl tested", "setting": "[9]; oral 6.25 mg/kg", "value": "2/5"},
      {"measurement": "Number of fowl having air sack lesions", "setting": "[9]; oral 12.5 mg/kg", "value": 0},
      {"measurement": "Number of fowl having air sack lesions", "setting": "[9]; oral 25.0 mg/kg", "value": 0},
      {"measurement": "In vitro Sensitivity Test E.coli E-17", "setting": "[10]", "value": 0.025, "unit": "µg/ml"},
      {"measurement": "In vitro Sensitivity Test H.pp M-1", "setting": "[11]", "value": 0.2, "unit": "µg/mL"},
      {"measurement": "In vitro Sensitivity Test B.br ABU-1", "setting": "[12]", "value": 1.56, "unit": "µg/mL"},
      {"measurement": "In vitro Sensitivity Test H.pg 221", "setting": "[13]", "value": 0.2, "unit": "µg/mL"},
      {"measurement": "In vitro Sensitivity Test H.pg S-1", "setting": "[14]", "value": 0.2, "unit": "µg/mL"},
      {"measurement": "In vitro Sensitivity Test E.coli JC-2", "setting": "[15]", "value": 0.05, "unit": "µg/mL"},
      {"measurement": "In vitro Sensitivity Test S.au 209P", "setting": "[16]", "value": 0.025, "unit": "µg/mL"},
      {"measurement": "In vitro Sensitivity Test S.typhi 13311", "setting": "[17]", "value": 0.05, "unit": "µg/mL"}
    ]}
  ]
}
